Measurements as given in the supplement of paper PMC11451515.

What was measured:
Test in all cases: AUC of viability dose-response curve (% viability x log10 dose units); higher = less sensitive
Details in all cases: 48 h
P12-Ichikawa = tested on: P12-Ichikawa
Outline: (§1)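 Leukemia cells adapted to each medium were seeded in 1536-well plates (500 or 1000 cells/well). They were dosed with library compounds in DMSO at 11 threefold doses, 47 μM to 0.79 nM, for 48 h at 37°C. CellTiter-Glo One luminescence was normalised per plate to DMSO and cell-free wells. Area under the curve was integrated by trapezoidal rule over log10 doses on a four-parameter log-logistic fit; curves exceeding full viability were scaled and curves failing quality control removed.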

NOMO1 = tested on: NOMO1
Outline: as §1

SEM cells = tested on: SEM cells
Outline: as §1

[1] = RPMI 5 mM glucose + 10% dialyzed FBS

Row | SMILES | AUC of viability dose-response curve (P12-Ichikawa; HPLM + 10% dialyzed FBS) | AUC of viability dose-response curve (P12-Ichikawa; RPMI 5 mM glucose + 10% FBS) | AUC of viability dose-response curve (P12-Ichikawa; [1]) | AUC of viability dose-response curve (NOMO1; HPLM + 10% dialyzed FBS) | AUC of viability dose-response curve (NOMO1; RPMI 5 mM glucose + 10% FBS) | AUC of viability dose-response curve (NOMO1; [1]) | AUC of viability dose-response curve (SEM cells; HPLM + 10% dialyzed FBS) | AUC of viability dose-response curve (SEM cells; RPMI 5 mM glucose + 10% FBS) | AUC of viability dose-response curve (SEM cells; [1])
1 | CC1=C(C)C2=C(S1)[N]3C(=NN=C3[C@H](CC(=O)OC(C)(C)C)/N=C2/C4=CC=C(Cl)C=C4)C | 311 | 313 | 305 | 292 | 286 | 296 | 249 | 264 | 251
2 | C[C@H]1[C@@H](CC(C[C@H]2O[C@@H]3O[C@]4(C)CC[C@H]5[C@H](C)CC[C@@H]([C@H]2C)[C@@]35OO4)C[S+](=O)([O-])c2ccc(COC(=O)N(C)C)cc2)O[C@@H]2O[C@]3(C)CC[C@H]4[C@H](C)CC[C@@H]1[C@@]24OO3 | 351 | 348 | 341 | 301 | 329 | 299 | 297 | 284 | 284
3 | N#Cc1c(C2CCNCC2)cc(-c2c(O)cccc2OCC2CC2)nc1N | 453 | 430 | 446 | 455 | 450 | 447 | 441 | 446 | 435
4 | Nc1ccc([S+](=O)([O-])Nc2ccccn2)cc1 | 467 | 439 | 445 | 470 | 467 | 464 | 438 | 468 | 448
5 | CCCCCCCCCCCCCCCC(=O)OC[C@@H](NC(=O)C(Cl)Cl)[C@H](O)c1ccc([N+](=O)[O-])cc1 | 470 | 429 | 461 | 450 | 461 | 445 | 464 | 468 | 455
6 | CC1=C(/C=C/C(C)=C/C=C/C(C)=C/C(=O)Nc2ccc(O)cc2)C(C)(C)CCC1 | 326 | 311 | 276 | 347 | 348 | 341 | 301 | 322 | 274
7 | O=C(Oc1ccc([N+](=O)[O-])cc1)N1CCN(Cc2cccc(Oc3ccccc3)c2)CC1 | 468 | 475 | 457 | 469 | 460 | 451 | 433 | 453 | 468
8 | COc1ccc2cc(-c3[nH]c(-c4ccc([S+](C)[O-])cc4)nc3-c3ccncc3)ccc2c1 (stereo unspecified) | 472 | 468 | 464 | 461 | 390 | 435 | 451 | 463 | 460
9 | O=C(c1ccc(F)cc1)C1CCN(CCn2c(=O)[nH]c3ccccc3c2=O)CC1 | 455 | 448 | 451 | 469 | 457 | 453 | 469 | 474 | 466
10 | COc1ccc(-c2c(-c3ccc(O)cc3O)n[nH]c2C)cc1 | 465 | 464 | 468 | 449 | 467 | 466 | 428 | 405 | 431
11 | CNC(=O)c1c(F)cccc1Nc1nc(Nc2cc3c(cc2OC)CCN3C(=O)CN(C)C)nc2[nH]ccc12 | 446 | 463 | 454 | 384 | 459 | 454 | 269 | 253 | 272
12 | Cn1c(=O)c2c(ncn2CC(O)CO)n(C)c1=O (stereo unspecified) | 435 | 449 | 460 | 470 | 462 | 455 | 440 | 469 | 421
13 | CC(C)(C)C1=NC2=C([NH]1)C3=CC=C(F)C=C3C4=C2\C=C/NC4=O | 391 | 404 | 408 | 415 | 412 | 408 | 384 | 378 | 384
14 | COC1=CC=C2C(=CC=NC2=C1)OC3=CC=C(NC(=O)\C4=C(C)\N(CC(C)(C)O)N(C4=O)C5=CC=CC=C5)C=C3F | 472 | 468 | 469 | 459 | 468 | 467 | 404 | 379 | 365
15 | CC(=O)SCC(Cc1ccccc1)C(=O)NCC(=O)OCc1ccccc1 (stereo unspecified) | 439 | 445 | 418 | 390 | 358 | 351 | 451 | 443 | 442
16 | CN(C)c1ccc(C(=O)NCCCCCCC(=O)NO)cc1 | 329 | 330 | 317 | 358 | 343 | 354 | 311 | 314 | 316
17 | CC(C)[C@H](CO)Nc1nc(Nc2ccc(C(=O)O)c(Cl)c2)c2ncn(C(C)C)c2n1 | 432 | 414 | 425 | 428 | 445 | 462 | 428 | 412 | 462
18 | CCOc1cc2c(c(F)c1OCC)C(=N)N(CC(=O)c1cc(N3CCOCC3)c(OC)c(C(C)(C)C)c1)C2 | 465 | 472 | 475 | 464 | 435 | 453 | 465 | 464 | 453
19 | CC(C)c1ccc2oc3nc(N)c(C(=O)O)cc3c(=O)c2c1 | 467 | 470 | 474 | 469 | 470 | 472 | 466 | 449 | 462
